According to patent US20230357248A1, “PYRROLOPYRIMIDINE COMPOUND AS BTK INHIBITOR AND USE THEREOF” (MEDSHINE DISCOVERY INC., priority 2019, published 2023):

Tests used:
TMD8 cells = experiment: BTK cell activity assay (CellTiter Glo); format: cell-based; conditions: Homo sapiens, Cell Titer Glo, read-out: Relative IC50
Experimental: 1. Cell Culture and Passage
The medium, trypsin and 1×PBS used in the cell passage process were preheated in a 37° C. water bath. The supernatant was aspirated.
1 mL of trypsin was added to rinse, and the rinse solution was aspirated. 1 mL of trypsin was added, respectively, and cells were digested at 37° C. until the cells fell off. 10 mL of culture medium was added and mixed well. The mixture was centrifuged at 1000 rpm for 5 min and the cells were resuspended in 10 mL of culture medium. 0.7 mL of cell suspension was pipetted into a counting cup and counted on ViCell XR to respectively obtain a cell density of 0.327 million/mL. 1.17 mL of cell suspension and culture medium were weighed, respectively, to dilute the cell suspension. According to the microplate layout diagram below, 100 μL of phosphate buffer was added to the peripheral wells of the 384-well microplate, and 40 μL of cell suspension was added to other wells, respectively. The cell plate was then cultured in an incubator.
2. Dosing • (1) Preparation of compound:
A 9 μL dilution of the compound to be assayed was added to a shallow-well plate for Pod (Labcyte, #LP-0200). The shallow-well plate was centrifuged at 2500 rpm for 30 s. • (2) The cell plate was removed from the incubator. • (3) According to the microplate layout diagram below, compounds were serially diluted 3-fold in Pod to obtain 10 concentrations. The diluted compounds were added to the cell plate at 100 nL, respectively, and then the cell plate was returned to the incubator for culture. • 3. At Day 0, 20 μL of CellTiter Glo was added to the plate with DMSO added, and the mixture was shaken in the dark for 10 minutes. The plate was read with Envision. • 4. At Day 5: CTG was added and the plate was read. • (1) After being cultured for 72 h, 20 μL of Cell Titer Glo was added to the cell plate, and the mixture was shaken in the dark for 10 minutes. • (2) The plate was read with Envision.
Assay Results • 1. Average value and standard deviation of 0% inhibition (DMSO well, MAX) and 100% inhibition (day 0, DMSO) in each group were calculated; • 2. […]

[1] = Plasma protein binding (PPB) assay, H; format: in vitro ADME; conditions: human, dialysis 4 hr 37° C.
Experimental: (§1) Assay procedure: 995 μL of blank plasma of various genera were weighed, and 5 μL of assay compound working solution (400 μM) or warfarin working solution (400 μM) was added so that the final concentrations of the assay compound and warfarin in plasma sample were each 2 μM. The samples were mixed thoroughly. The final concentration of DMSO (the organic phase) was 0.5%. 50 μL of the plasma samples of the assay compound and warfarin were pipetted to a sample receiving plate (in triplicate), and the corresponding volume of corresponding blank plasma or buffer was added immediately, so that the final volume in each sample well was 100 μL, wherein the volume ratio of plasma:dialysis buffer was 1:1. 500 μL of stop solution was then added to these samples. These samples were used as T0 samples for determination of recovery and stability. […] All samples were subjected to protein precipitation, and then analyzed by LC/MS/MS. Bound rate and recovery rate of protein were calculated using the following formulae: % Unbound=100*F/T, % Bound=100−% Unbound, % Recovery=100*(F+T)/T0 (wherein F is the peak area ratio of the compound in the dialysate after 4 h of dialysis; T is the peak area ratio of the compound in the plasma after 4 h of dialysis; To is the peak area ratio of the compound in the plasma sample at time zero).

[2] = Plasma protein binding (PPB) assay, D; format: in vitro ADME; conditions: dog, dialysis 4 hr 37° C.
Experimental: as §1

[3] = Plasma protein binding (PPB) assay, M; format: in vitro ADME; conditions: mouse, dialysis 4 hr 37° C.
Experimental: as §1

[4] = Pharmacokinetic evaluation in CD-1 mouse (intravenous); format: in vivo; conditions: male, plasma, IV 0.21 mg/kg
Experimental: Assay purpose: To assay the pharmacokinetics of the compound in CD-1 mouse (intravenous)
Pharmacokinetic study of oral and intravenously injected compound 4 and reference example 1 (compound 005-1) in CD-1 mouse
(§2) Compound 4 and reference example 1 were mixed with the solvent (10% NMP/60% PEG400/30% H2O). The mixture was vortexed and sonicated to prepare a clarified solution of 0.1 mg/mL. 7- to 10-week old CD-1 male mice were selected, and the candidate compound solution was administered intravenously at a dose of 0.21 mg/kg.
(§3) Whole blood was collected for a certain period of time to prepare the plasma. Drug concentration was analyzed by LC-MS/MS, and pharmacokinetic parameters were calculated by Phoenix WinNonlin software (Pharsight, USA).

[5] = Pharmacokinetic evaluation in CD-1 mouse (oral); format: in vivo; conditions: 3.1 mg/kg
Experimental: Assay purpose: To assay the pharmacokinetics of the compound in CD-1 mouse (oral)
Pharmacokinetic study of oral and intravenously injected compound 4 and reference example 1 (compound 005-1) in CD-1 mouse.
as §2, with “example 1 (compound 005-1) were mixed” for “example 1 were mixed”, “solution of 0.6 mg/mL. 7-” for “solution of 0.1 mg/mL. 7-”, “dose of 3.1 mg/kg.” for “dose of 0.21 mg/kg.”
as §3

[6] = AUCu = AUC0-inf * Unbound PPB (Mouse)

fraction unbound at 4 h, 2 μM [1]: 0.004
fraction unbound at 4 h, 2 μM [2]: 0.001
fraction unbound at 4 h, 2 μM [3]: 0.004
AUC(0-inf) [4]: 3.11 µM·h
C0 [4]: 562 nM
Vd [4]: 0.85 L/kg
clearance [4]: 2.12 mL/min/kg
half-life [4]: 4.65 h
AUC [4, 6]: 0.0124 µM·h
AUCu [5, 6]: 0.133 µM·h
AUC(0-inf) ([5]; male, plasma): 33.2 µM·h
Cmax ([5]; male, plasma): 2980 nM
bioavailability ([5]; male, plasma): 71.7%
half-life ([5]; male, plasma): 3.73 h
SMILES: CO[C@@H]1C[C@@H](CO)OC[C@@H]1Nc1ncnc2[nH]cc(C(=O)c3ccc(Oc4ccccc4)cc3Cl)c12 [Compound 4]
IC50 (TMD8 cells): 261 nM
